The test system of the test is P. noctiluca. The test can be described thus: Tentacle Skin Blood Agarose Assay (TSBAA): venom load after natural stimulation of nematocyst discharge. It counts as cell-based. The note with it: for discharge of nematocysts: summary of the results of Examples 1 and 2. On the procedure: Example 2: Natural stimulation of nematocyst discharge. Tentacle Skin Blood Agarose Assay (TSBAA).
Briefly, an agarose gel preparation incorporating sheep red blood cells (SRBCs) (Thermo Fisher Scientific) was used covered by a thin tissue of pig intestine to simulate the effect of the human skin barrier.
A solution of 4% low melting point agarose (INVITROGEN ™ LMP Agarose) in phosphate buffered saline (PBS) (SIGMA) was prepared and cooled to room temperature for a few minutes. The SRBCs were centrifuged and resuspended in PBS until a final concentration of 2% was obtained. Equal volumes of both preparations were mixed and poured onto a glass surface with a mold (18x7.5 cm) and allowed to cool to room temperature. Once the agarose with SRBCs was set, rectangles were cut and placed on slides and kept at 4 °C in a humidification chamber (maximum 72 hours until use).
Pig small intestine tissue was washed in a 50 mM saline solution and then cut in rectangular sections. […] The next day, the sections were stretched on a glass surface and allowed to dry for a few minutes in the open air. The pretreated sections of the pig small intestine were placed on the SRBC agarose rectangles
Cutting tentacles of the same size is a complicated process due to the contraction and expansion of the tentacles after their manipulation. In order to control the sting area, we design plastic molds obtained through a 3D printer.
Tentacle pieces of approximately 3 cm long were incubated on reductor or inhibitory solutions (Method 3) for 5 minutes. Consecutively, the agarose rectangles were stung by a sting diameter of 57,35 mm^2 for 1 minute. A weight of 0,66 g was applied to ensure the contact between the tentacle and the skin. After the sting process, the plastic molds and the intestine sections were removed and the SRBC's agarose rectangles were stored in the humidification chamber at room temperature. After a period of 22 hours, images of the hemolytic areas were obtained with a camera. Hemolytic areas were calculated using the Fiji version of ImageJ software (J. Schindelin et al., Fiji: an open-source platform for biological-image analysis. Nature methods, 2012, vol. 9, pp. 676-682). Table 2. Inhibitory efficacy on the venom load to P. noctiluca.

Regarding `CC(O)CCO` (stereo not shown) [100% Butylene glycol, Butylene glycol], under “tentacles incubated 5 minutes in solution, sting 1 minute on SRBC agarose covered with pig intestine, read after 22 hours”, the “Venom load - Hemolytic area (%)” value was 26.54 ± 19.66%. Further, the “% Inhibitory” value ({}) came to 56.33%.
Take `CC(C)(C)C1CCC(O)CC1` (stereo not shown) [4-tert-butyl cyclohexanol]: the discharge of nematocysts result is recorded as “significantly reduces”.
Consider `O=C(CO)c1ccccc1` [HAP, hydroxy acetophenone], for which the discharge of nematocysts entry is “significantly reduces”.

For the origin of these results see patent publication EP4311545A1, “COMPOUNDS USEFUL FOR THE POST-STING TREATMENT FROM A CNIDARIAN ORGANISM” (Isdin, S. A., priority 2022, dated 2024).
